Laboratory results: ChEMBL document CHEMBL3112480, “γ-Alkylidene-γ-lactones and isobutylpyrrol-2(5H)-ones analogues to rubrolides as inhibitors of biofilm formation by gram-positive and gram-negative bacteria” (Bioorg Med Chem Lett, 2014)
≈ marks a conversion by molar mass, not a printed value.

Tests used:
[1] = test system: Streptococcus mutans; test: Antibacterial activity against Streptococcus mutans ATCC 25175 assessed as effect on planktonic growth at 21.9 ug/ml after 20 hrs relative to control; format: functional
[2] = test system: Staphylococcus epidermidis; test: Antibacterial activity against Staphylococcus epidermidis ATCC 35547 assessed as effect on planktonic growth at 21.9 ug/ml after 20 hrs relative to control; format: functional
[3] = test system: Streptococcus mutans; test: Antibacterial activity against Streptococcus mutans ATCC 25175 assessed as effect on planktonic growth at 0.34 ug/ml after 20 hrs relative to control; format: functional
[4] = test system: Staphylococcus aureus; test: Antibacterial activity against Staphylococcus aureus ATCC 25923 assessed as effect on planktonic growth at 0.34 ug/ml after 20 hrs relative to control; format: functional
[5] = test system: Streptococcus mutans; test: Antibacterial activity against Streptococcus mutans ATCC 25175 assessed as effect on planktonic growth at 0.17 ug/ml after 20 hrs relative to control; format: functional
[6] = test system: Pseudomonas aeruginosa; test: Antibacterial activity against Pseudomonas aeruginosa ATCC 27853 assessed as effect on planktonic growth at 0.34 ug/ml after 20 hrs relative to control; format: functional
[7] = test system: Staphylococcus aureus; test: Antibacterial activity against Staphylococcus aureus ATCC 25923 assessed as effect on planktonic growth at 21.9 ug/ml after 20 hrs relative to control; format: functional
[8] = test system: Staphylococcus aureus; test: Antibacterial activity against Staphylococcus aureus ATCC 25923 assessed as effect on planktonic growth at 43.8 ug/ml after 20 hrs relative to control; format: functional
[9] = test system: Streptococcus mutans; test: Antibacterial activity against Streptococcus mutans ATCC 25175 assessed as effect on planktonic growth at 2.73 ug/ml after 20 hrs relative to control; format: functional
[10] = test system: Streptococcus mutans; test: Antibacterial activity against Streptococcus mutans ATCC 25175 assessed as effect on planktonic growth at 0.68 ug/ml after 20 hrs relative to control; format: functional
[11] = test system: Staphylococcus epidermidis; test: Antibacterial activity against Staphylococcus epidermidis ATCC 35547 assessed as effect on planktonic growth at 87.5 ug/ml after 20 hrs relative to control; format: functional
[12] = test system: Pseudomonas aeruginosa; test: Antibacterial activity against Pseudomonas aeruginosa ATCC 27853 assessed as effect on planktonic growth at 5.5 ug/ml after 20 hrs relative to control; format: functional
[13] = test system: Pseudomonas aeruginosa; test: Antibacterial activity against Pseudomonas aeruginosa ATCC 27853 assessed as effect on planktonic growth at 0.17 ug/ml after 20 hrs relative to control; format: functional
[14] = test system: Streptococcus mutans; test: Antibacterial activity against Streptococcus mutans ATCC 25175 assessed as effect on planktonic growth at 5.5 ug/ml after 20 hrs relative to control; format: functional
[15] = test system: Staphylococcus epidermidis; test: Antibacterial activity against Staphylococcus epidermidis ATCC 35547 assessed as inhibition of biofilm formation after 20 hrs by crystal-violet staining method; format: functional, organism-based
[16] = test system: Pseudomonas aeruginosa; test: Antibacterial activity against Pseudomonas aeruginosa ATCC 27853 assessed as effect on planktonic growth at 10.9 ug/ml after 20 hrs relative to control; format: functional
[17] = test system: Pseudomonas aeruginosa; test: Antibacterial activity against Pseudomonas aeruginosa ATCC 27853 assessed as effect on planktonic growth at 43.8 ug/ml after 20 hrs relative to control; format: functional
[18] = test system: Staphylococcus epidermidis; test: Antibacterial activity against Staphylococcus epidermidis ATCC 35547 assessed as effect on planktonic growth at 0.68 ug/ml after 20 hrs relative to control; format: functional
[19] = test system: Streptococcus mutans; test: Antibacterial activity against Streptococcus mutans ATCC 25175 assessed as effect on planktonic growth at 10.9 ug/ml after 20 hrs relative to control; format: functional
[20] = test system: Pseudomonas aeruginosa; test: Antibacterial activity against Pseudomonas aeruginosa ATCC 27853 assessed as effect on planktonic growth at 2.73 ug/ml after 20 hrs relative to control; format: functional
[21] = test system: Staphylococcus epidermidis; test: Antibacterial activity against Staphylococcus epidermidis ATCC 35547 assessed as effect on planktonic growth at 0.34 ug/ml after 20 hrs relative to control; format: functional
[22] = test system: Staphylococcus aureus; test: Antibacterial activity against Staphylococcus aureus ATCC 25923 assessed as effect on planktonic growth at 0.68 ug/ml after 20 hrs relative to control; format: functional
[23] = test system: Streptococcus mutans; test: Antibacterial activity against Streptococcus mutans ATCC 25175 assessed as effect on planktonic growth at 43.8 ug/ml after 20 hrs relative to control; format: functional
[24] = test system: Pseudomonas aeruginosa; test: Antibacterial activity against Pseudomonas aeruginosa ATCC 27853 assessed as effect on planktonic growth at 0.68 ug/ml after 20 hrs relative to control; format: functional
[25] = test system: Staphylococcus aureus; test: Antibacterial activity against Staphylococcus aureus ATCC 25923 assessed as effect on planktonic growth at 0.17 ug/ml after 20 hrs relative to control; format: functional
[26] = test system: Staphylococcus aureus; test: Antibacterial activity against Staphylococcus aureus ATCC 25923 assessed as effect on planktonic growth at 2.73 ug/ml after 20 hrs relative to control; format: functional
[27] = test system: Staphylococcus aureus; test: Antibacterial activity against Staphylococcus aureus ATCC 25923 assessed as effect on planktonic growth at 87.5 ug/ml after 20 hrs relative to control; format: functional
[28] = test system: Staphylococcus aureus; test: Antibacterial activity against Staphylococcus aureus ATCC 25923 assessed as effect on planktonic growth at 5.5 ug/ml after 20 hrs relative to control; format: functional
[29] = test system: Staphylococcus epidermidis; test: Antibacterial activity against Staphylococcus epidermidis ATCC 35547 assessed as effect on planktonic growth at 1.37 ug/ml after 20 hrs relative to control; format: functional
[30] = test system: Staphylococcus epidermidis; test: Antibacterial activity against Staphylococcus epidermidis ATCC 35547 assessed as effect on planktonic growth at 43.8 ug/ml after 20 hrs relative to control; format: functional
[31] = test system: Staphylococcus epidermidis; test: Antibacterial activity against Staphylococcus epidermidis ATCC 35547 assessed as effect on planktonic growth at 0.17 ug/ml after 20 hrs relative to control; format: functional
[32] = test system: Staphylococcus epidermidis; test: Antibacterial activity against Staphylococcus epidermidis ATCC 35547 assessed as effect on planktonic growth at 5.5 ug/ml after 20 hrs relative to control; format: functional
[33] = test system: Pseudomonas aeruginosa; test: Antibacterial activity against Pseudomonas aeruginosa ATCC 27853 assessed as effect on planktonic growth at 21.9 ug/ml after 20 hrs relative to control; format: functional
[34] = test system: Staphylococcus aureus; test: Antibacterial activity against Staphylococcus aureus ATCC 25923 assessed as effect on planktonic growth at 1.37 ug/ml after 20 hrs relative to control; format: functional
[35] = test system: Staphylococcus epidermidis; test: Antibacterial activity against Staphylococcus epidermidis ATCC 35547 assessed as effect on planktonic growth at 2.73 ug/ml after 20 hrs relative to control; format: functional
[36] = test system: Streptococcus mutans; test: Antibacterial activity against Streptococcus mutans ATCC 25175 assessed as effect on planktonic growth at 1.37 ug/ml after 20 hrs relative to control; format: functional
[37] = test system: Staphylococcus aureus; test: Antibacterial activity against Staphylococcus aureus ATCC 25923 assessed as effect on planktonic growth at 10.9 ug/ml after 20 hrs relative to control; format: functional
[38] = test system: Pseudomonas aeruginosa; test: Antibacterial activity against Pseudomonas aeruginosa ATCC 27853 assessed as effect on planktonic growth at 1.37 ug/ml after 20 hrs relative to control; format: functional
[39] = test system: Pseudomonas aeruginosa; test: Antibacterial activity against Pseudomonas aeruginosa ATCC 27853 assessed as inhibition of biofilm formation after 20 hrs by crystal-violet staining method; format: functional, organism-based
[40] = test system: Streptococcus mutans; test: Antibacterial activity against Streptococcus mutans ATCC 25175 assessed as effect on planktonic growth at 87.5 ug/ml after 20 hrs relative to control; format: functional
[41] = test system: Pseudomonas aeruginosa; test: Antibacterial activity against Pseudomonas aeruginosa ATCC 27853 assessed as effect on planktonic growth at 87.5 ug/ml after 20 hrs relative to control; format: functional
[42] = test system: Staphylococcus epidermidis; test: Antibacterial activity against Staphylococcus epidermidis ATCC 35547 assessed as effect on planktonic growth at 10.9 ug/ml after 20 hrs relative to control; format: functional

COc1ccc(Br)cc1C1=C(Br)C(=O)N(CC(C)C)/C1=C/c1ccc(Br)cc1
Activity [1]: 6%
Activity [2]: -1%
Activity [3]: 12%
Activity [4]: 6.3%
Activity [5]: 13.9%
Activity [6]: 2.6%
Activity [7]: 27.8%
Activity [8]: 36.6%
Activity [9]: 12%
Activity [10]: 14.4%
Activity [11]: 11.4%
Activity [12]: -16.1%
Activity [13]: 0.9%
Activity [14]: 10.1%
inhibition [15]: Dose-dependent effect
IC50 ([15]; ATCC 35547, 20 h): > 87.5 µg/mL
Activity [16]: -15.5%
Activity [17]: -6.2%
Activity [18]: -2.1%
Activity [19]: 7.6%
Activity [20]: -17.1%
Activity [21]: 0.4%
Activity [22]: 18.5%
Activity [23]: 9%
Activity [24]: -5.5%
Activity [25]: 2.2%
Activity [26]: 15.4%
Activity [27]: 68.6%
Activity [28]: 14.9%
Activity [29]: -1.2%
Activity [30]: 7.7%
Activity [31]: -3.3%
Activity [32]: 2.7%
Activity [33]: -11.7%
Activity [34]: 9.4%
Activity [35]: -5.7%
Activity [36]: -3.3%
Activity [37]: 16.8%
Activity [38]: -19.3%
inhibition [39]: Dose-dependent effect
IC50 ([39]; ATCC 27853, 20 h): 2.5 µg/mL (≈ 4.39 µM)
Activity [40]: 22.8%
Activity [41]: -8.2%
Activity [42]: 1%
